Laboratory results: US20130281544A1, “HEPATOPROTECTANT ACTIVITY OF GARCINOL” (priority 2010, published 2013)
Marks after values point to notes of the source that are not given here.

Experiments:
[1] = system: alcohol (Ethyl alcohol) induced hepatotoxic animal models; experiment: Serum ALT, AST, ALP and bilirubin in alcohol (ethyl alcohol) induced hepatotoxic animal models; type: in vivo, Male Wistar Rats; settings: EtOH; for ALP percent change / ALT percent change / AST percent change / Bilirubin percent change / ALP / ALT / AST / Bilirubin: serum; for ALP / ALT / AST / Bilirubin: Mean ± SE
Protocol: Doses of Garcinol (GC) used for the study: 1.25, 2.5, 5, 10 mg/kg p.o.
Standard drug: Silymarin (50 mg/kg) p.o.
Male Wistar rats, weighing 180-200 g, were given 0.5-0.6 ml ethanol orally. […] All rats had regular standard rat chow available throughout the 6-week period. Rats were weighted three times per week. [Guangjin Yuan, Zuojiong Gong *, Xiaorong Zhou, Pin Zhang, Xiaomei Sun and Xi Li. Epigallocatechin-3-Gallate Ameliorates Alcohol-Induced Liver Injury in Rats. Int. J. Mol. Sci. 2006, 7, 204-219]. Blood was collected from the retro-orbital plexus of experimental animals and no anti-coagulant was added. Blood was made to stand at room temperature for 1 hour. It was then centrifuged and clear serum was separated. The serum was then stored for analysis. Reference: (Magari et al., 2004).
(ASPARTATE AMINOTRANSFERASE and ALANINA AMINOTRANSFERASE), Reference: Ritman S, Frankel S, (1957). A colorimetric method for the determination of serum glutamic oxaloacetic and glutamic pyruvic transaminases. American Journal of Clinical Pathology; 28: 56-63.
0.2 ml of serum, collected from test and control samples, was mixed with 1.0 ml of buffer solution and incubated for 60 min at 37° C. in a water bath. After the addition of 1.0 ml of chromogen solution, the samples were kept at room temperature for 20 minutes for the reaction to proceed and 10 ml NaOH was added. The optical density was red at 546 nm after 5 min. To the blank, serum was added after the addition of chromogen solution.
(ALKALINE PHOSPHATASE), Reference: Klaus Walter and Schutt C. (1974). Acid and alkaline phosphatase in serum. In: Methods of Enzymatic Analysis. Eds. Hans Ulrich Bergmeyer, Verlag ChemieWeinheim, Academic press, Inc. New York, 2nd Edition, Vol. 2, pp. 855-64.
Alkaline phosphatase activity measurement is based on the ability of the enzyme to hydrolyze p-nitrophenol phosphate under alkaline conditions. The cleaved product p-nitrophenol is yellow in alkaline solution and is measured at 400-420 nm (Klaus and Schutt, 1974). 2.0 ml of buffered substrate was taken in the tubes ‘Test’ ‘Control’ and ‘Blank’ followed by addition of serum and distilled water (0.1 ml) in ‘Test’ and ‘Blank’ respectively and incubated in a water bath for 30 minutes at 25° C. After incubation sodium hydroxide was added (0.25 N, 2 ml) to all the tubes, which was followed by serum (0.1 ml) to the tubes marked ‘Control’. The yellow colour formed was measured spectrophotometrically against blank at 410 nm.
[BILIRUBIN (BRBN)], Reference: Malloy H T and Evelyn K A (1937). The determination of bilirubin with photoelectric colorimeter. Journal of Biological Chemistry 119: 481-490.
Serum bilirubin was estimated by the method of Malloy and Evelyn (1937). In the two sets of test tubes marked ‘Test’ and ‘Control’, serum (0.2 ml) and distilled water (1.8 ml) were added. To the tubes marked ‘Test’ and ‘Standard’ diazo reagent (0.5 ml) was added. To the test tubes marked ‘Control’ and ‘Blank’ diazo blank (0.5 ml) was added. Finally methanol (2.5 ml) was added into each test tube. The tubes were mixed and allowed to stand for 30 minutes in dark. The tubes were read after 10 minutes at 540 nm.

[2] = system: mice; settings: mouse, in vivo, po
Source text: The parameters studied and observations recorded are included in Table 1. (OECD Guidelines for Testing of Chemicals. Guideline 423, Acute Oral Toxicity—Acute Toxic Class Method, Adopted, (1996). Organization for Economic Cooperation and Development).

C=C(C)[C@@H](CC=C(C)C)C[C@@]12C[C@@H](CC=C(C)C)C(C)(C)[C@@](CC=C(C)C)(C(=O)C(C(=O)c3ccc(O)c(O)c3)=C1O)C2=O [Garcinol]
Average Protection ([1]; 1.25 mg/kg p.o.): 17.32% | Average Protection ([1]; 2.50 mg/kg p.o.): 29.82% | Average Protection ([1]; 5.00 mg/kg p.o.): 39.39% | Average Protection ([1]; 10.00 mg/kg p.o.): 40.20% | ALP percent change ([1]; 1.25 mg/kg p.o.): (14.91) % | ALT percent change ([1]; 1.25 mg/kg p.o.): (27.45) % | AST percent change ([1]; 1.25 mg/kg p.o.): (20.20) % | Bilirubin percent change ([1]; 1.25 mg/kg p.o.): (6.73) % | ALP ([1]; 1.25 mg/kg p.o.): 88.68 ± 8.58 μmol min/lt | ALT ([1]; 1.25 mg/kg p.o.): 1320.40 ± 52.20* μmol min/lt | AST ([1]; 1.25 mg/kg p.o.): 858.80 ± 32.64 μmol min/lt | Bilirubin ([1]; 1.25 mg/kg p.o.): 1.94 ± 0.02 mg % | ALP percent change ([1]; 2.50 mg/kg p.o.): (26.96) % | ALT percent change ([1]; 2.50 mg/kg p.o.): (40.63) % | AST percent change ([1]; 2.50 mg/kg p.o.): (32.47) % | Bilirubin percent change ([1]; 2.50 mg/kg p.o.): (19.23) % | ALP ([1]; 2.50 mg/kg p.o.): 76.12 ± 4.88* μmol min/lt | ALT ([1]; 2.50 mg/kg p.o.): 1080.50 ± 48.56** μmol min/lt | AST ([1]; 2.50 mg/kg p.o.): 726.78 ± 46.50* μmol min/lt | Bilirubin ([1]; 2.50 mg/kg p.o.): 1.68 ± 0.04* mg % | ALP percent change ([1]; 5.00 mg/kg p.o.): (34.44) % | ALT percent change ([1]; 5.00 mg/kg p.o.): (51.83) % | AST percent change ([1]; 5.00 mg/kg p.o.): (39.58) % | Bilirubin percent change ([1]; 5.00 mg/kg p.o.): (31.73) % | ALP ([1]; 5.00 mg/kg p.o.): 68.32 ± 5.60** μmol min/lt | ALT ([1]; 5.00 mg/kg p.o.): 876.58 ± 76.80** μmol min/lt | AST ([1]; 5.00 mg/kg p.o.): 650.26 ± 56.20** μmol min/lt | Bilirubin ([1]; 5.00 mg/kg p.o.): 1.42 ± 0.06** mg % | ALP percent change ([1]; 10.00 mg/kg p.o.): (33.79) % | ALT percent change ([1]; 10.00 mg/kg p.o.): (52.15) % | AST percent change ([1]; 10.00 mg/kg p.o.): (41.23) % | Bilirubin percent change ([1]; 10.00 mg/kg p.o.): (33.65) % | ALP ([1]; 10.00 mg/kg p.o.): 69.00 ± 4.82** μmol min/lt | ALT ([1]; 10.00 mg/kg p.o.): 870.80 ± 48.40** μmol min/lt | AST ([1]; 10.00 mg/kg p.o.): 632.48 ± 44.56** μmol min/lt | Bilirubin ([1]; 10.00 mg/kg p.o.): 1.39 ± 0.04** mg % | Aggressiveness [2]: Aggressiveness: Nil | Atexia [2]: Atexia: Nil | Blanching [2]: Blanching: Nil | Clonic convulsions [2]: Clonic convulsions: Nil | Corneal [2]: Corneal: No Effect | Cyanosis [2]: Cyanosis: Nil | Diarrhea [2]: Diarrhea: Nil | Excitation [2]: Excitation: Nil | Fearful [2]: Fearful: Nil | Fecal Output [2]: Fecal Output: Normal | General Locomotor Activity [2]: General Locomotor Activity: Normal | General Movement [2]: General Movement: Normal | Hyperemia [2]: Hyperemia: Nil | Motor Activity [2]: Motor Activity: Normal | Muscular Weakness [2]: Muscular Weakness: Nil | Passive [2]: Passive: Nil | Pilo erection [2]: Pilo erection: Nil | Pinnal [2]: Pinnal: No Effect | Respiration Depth [2]: Respiration Depth: Normal | Respiration Rate [2]: Respiration Rate: Normal | Respiration rate [2]: Respiration rate: Normal | Salivation [2]: Salivation: Normal | Tremors [2]: Tremors: Nil | Urine Output [2]: Urine Output: Normal
